Entries after “also recorded” stand apart in the source; their conditions may differ.
Columns and labels:
[1] = Vitrification screening assay (critical EG concentration); format: physicochemical; settings: lowest EG for complete vitrification of 20 μL sample, 5 mg/mL peptoid in formulation, liquid nitrogen immersion
Description: As another means of increasing the throughput of library analysis, a vitrification screening assay was performed to evaluate anti-icing efficacy. For these experiments the compounds named “Compound 11,” “Compound 12,” “Compound 25,” Compound 26,” “Compound 27,” “Compound 28,” “Compound 60,” “Compound 62,” “Compound 63,” “Compound 64,” “Compound 69,” “Compound 70,” “Compound 71,” “Compound 72,” “Compound 73,” “Compound 74,” “Compound 75,” “Compound 76,” “Compound 77,” “Compound 78,” “Compound 81,” “Compound 82,” “Compound 83,” “Compound 84,” and “Compound 85” were tested.
For these experiments, 20 μL samples were flash frozen by liquid immersion in liquid nitrogen. Ethylene glycol (EG) concentrations between 5% and 25% (v/v) were used. A concentration of 5 mg/mL of peptoid polymer compounds were used in formulation. Table 12 lists the lowest concentration of EG necessary to bring about complete vitrification of a 20 μL sample with peptoid polymer in formulation, referred to as the “critical EG concentration.” A sample of formulation without the presence of a peptoid polymer was only able to bring about vitrification at 20% or more EG. Peptoid polymers of interest were able to bring about vitrification within formulas containing EG when the concentration of EG was lower than 20%.

K562 cells [2] = test: K562 viability after storage at −20° C. for 3 days (Alamar Blue); format: cell-based; settings: 1% peptoid in XT Formula, K562 stored at −20° C. for 3 days, vs. XT Formula alone
Description: Several compounds were examined in XT Formula at 1% concentration (i.e., 1% peptoid polymer concentration) for their ability to increase the viability of cells subjected to super-cooled storage. XT Formula contains HTK buffer, among other components. In particular, the effects of these compounds on the viability of K562 cells stored at −20° C. for 3 days were evaluated. An Alamar Blue assay was used to assess cell viability 7 days after stored cells were thawed.

K562 cells [3] = test: K562 survival after storage at −80° C. for 3 days (Alamar Blue); format: cell-based; settings: 1% peptoid in XT Formula, K562 stored at −80° C. for 3 days
Description: Several compounds were examined in XT Formula at 1% concentration (i.e., 1% peptoid polymer concentration) for their effects on the cryopreservation of cells. In particular, the effects of these compounds on the survival of K562 cells stored at −80° C. for 3 days were evaluated. An Alamar Blue assay was used to assess cell survival 1 day after stored cells were thawed. A 10% DMSO formula and DMEM cell media only were used as controls.

[4] = 160 mM ethylene glycol in MilliQ water, slow cooled, −20° C., one hour
Description: In this experiment, four water-based samples were prepared in capillary tubes containing MilliQ purified water. One sample contained only water, and another sample contained 160 mM ethylene glycol (EG). The other two samples each contained a peptoid polymer at 9 mM.
After sample preparation, all samples were slow cooled and incubated at −20° C. on a Peltier cooled plate. After one hour, samples were removed and immediately photographed using a digital camera attached to a 180× Stereo Zoom microscope (FIG. 2A).

K562 cells [5] = test: Cell toxicity assay in K562 cell culture; format: cell-based; settings: 1% concentration, 24 hours at 37° C. and 5% CO2
Description: The cytotoxicity of several compounds were evaluated using a typical cell toxicity assay in K562 cell culture. […] As a positive control, some cells were incubated without any peptoid polymer (DMEM). For a negative control, cells were incubated with DMSO (DMEM+10% DMSO).

[6] = Larger volume flash freeze / rewarm / −20° C. storage assay; format: physicochemical; settings: 22.5% EG
Description: In order to test the usefulness of peptoid polymers at larger scales, experiments were performed using solution volumes that are similar to volumes used for standard egg and stem cell preservation. For these experiments, two samples, one containing 22.5% EG and buffer only, and another containing 22.5% EG and 5 mg/ml (0.5% w/v) of Compound 12 and buffer, were flash frozen in liquid nitrogen. […] The rewarming of the solutions in a 37° C. water bath led to an unexpected and beneficial result. The Compound 12 solution bypassed devitrification in less than 2 seconds upon rewarming (FIG. 6B, right), whereas chunks of ice were seen floating in the control sample (FIG. 6B, left) after 20 seconds. Condensation was seen on each of the tubes because the tubes were actually still much below room temperature.

HEK 293 cells = test: Cryopreservation assay, flash freezing in liquid nitrogen, Calcein AM viability; format: cell-based, human
Description: Initial cryopreservation assays were performed using very simple solutions, with and without the addition of Compound 12, in order to minimize confounding outside factors. For this first set of experiments, two sample solutions were prepared. The first sample solution contained simple buffer and ethylene glycol (EG) at a concentration of 22.5% (v/v), and the second sample solution contained simple buffer, EG (22.5% (v/v)), and 5 mg/mL (0.5% (w/v)) of Compound 12.
HEK 293 cells were grown until 70% confluent, then treated with trypsin to remove adhesion proteins and yield free floating cells. Cells were counted using a hemocytometer and sample cell concentrations were adjusted to final concentrations of 10,000 cells per microliter. Cells were then compressed into tight pellets by centrifugation, and each sample was subsequently mixed with 20 μL of one of the sample solutions. Samples were then flash frozen by immersion in liquid nitrogen, followed by rewarming in a 37° C. water bath. After the freeze-thaw process, cells were suspended in a 400× volume of culture media for recovery. The positive control sample was treated with culture media at 37° C. and not subjected to the freeze-thaw process. The negative control sample was treated with culture media only during the freeze-thaw process. After recovery, cells were stained with Calcein AM for 30 minutes and cell viability was measured using a fluorescence plate reader.
A second set of experiments was performed to evaluate the cryopreservation potential of a formulation that contained 5 mg/mL of Compound 12 plus a mixture of glycols, disaccharides, and a general buffer. Post-thaw survival following vitrification in liquid nitrogen was evaluated as described above.

[7] = Crystallographic x-ray diffraction (XRD) ice crystal formation assay; format: physicochemical
Description: In order to increase the throughput of library analysis, a crystallographic x-ray diffraction (XRD) technique was used to evaluate ice crystal formation. For these experiments, the compounds named “Compound 2,” “Compound 8,” “Compound 10,” “Compound 11,” “Compound 12,” “Compound 13,” and “Compound 58” were tested. Compound 58 is similar to Compound 12, except that an arginine amino acid has been appended to the N-terminal end.
For these experiments, EG concentrations between 15% and 30% (v/v) were used. Typically, EG, DMSO, and other cryoprotectants are used during XRD sample analysis at concentrations of 35-40% (v/v) to vitrify solutions and avoid diffraction interference from ice crystals. Concentrations of 1 and 5 mg/mL of the peptoid and peptoid-peptide compounds were used. FIGS. 3A, 3B, and 3C illustrate exemplary XRD data under conditions of complete vitrification, partial vitrification with the presence of cubic ice, and freezing ([…]), respectively. FIG. 3D provides ice rings scores for a variety of EG concentrations and two concentrations of Compounds 2, 8, and 12.
“IceRing1” and “IceRing2” refer to ice formation scores, which range between 0 (no ice formation) and 15 (large ice formation).

HEK 293 cell line = test: Cell-based cytotoxicity assay (MTT); design: species or system human
Description: A Tecan Genesis Robotic Workstation was used to prepare solutions in 96- and 384-well plates. Solutions contained culture media, buffers, a cryoprotectant composition (Compound 12) or DMSO. Solutions were adjusted to the desired pH. Serial dilutions were performed to obtain solutions containing various concentrations of Compound 12 and DMSO. Control experiments were performed using only culture media.
For these experiments, cells were seeded at low density (i.e., 10% confluence), exposed to solutions containing Compound 12 or DMSO, and placed in a 37° C. incubator. The cells were allowed to grow until control cells that were treated only with empty vehicle approached 70% confluence (typically about 3 to 5 days). Assessment for compound cytotoxicity was via MTT assay.

CCC(C)NCC(=O)N(CC(=O)N(CCCN1CCCC1=O)CC(=O)N(CCCN1CCCC1=O)CC(=O)N(CC(=O)N(CC(=O)N(CCCN1CCCC1=O)CC(=O)N(CCCN1CCCC1=O)CC(=O)N(CC(=O)N(CC(N)=O)C(C)CC)C(C)CC)C(C)CC)C(C)CC)C(C)CC (stereo not drawn) [Compound 76, Nsb-Nsb-Nop-Nop-Nsb-Nsb-Nop-Nop-Nsb-Nsb]
Critical Ethylene Glycol Concentration [1]: 15.0% (ν/ν) | cell viability 7 days after thaw (K562 cells [2]): improved cell viability compared to XT Formula alone | cell survival 1 day after thaw (K562 cells [3]): produced the greatest improvement in cell survival

OCCO [EG, ethylene glycol]
ice crystal formation in capillary tube [4]: significant ice crystal formation

CCC(C)NCC(=O)N(CC(=O)N(CC(=O)N(CC(=O)N(CC(=O)N(CC(=O)N(CC(=O)N(CC(=O)N(CC(=O)N(CC(N)=O)C(C)CC)C(C)CC)CC(C)O)CC(C)O)C(C)CC)C(C)CC)CC(C)O)CC(C)O)C(C)CC (stereo not drawn) [Compound 12, Nsb-Nsb-Nhp-Nhp-Nsb-Nsb-Nhp-Nhp-Nsb-Nsb]
cytotoxicity (cell persistence) (K562 cells [5]): persisted about as well as cell incubated in cell culture media alone (DMEM) | vitrification on flash freezing in liquid nitrogen ([6]; 5 mg/ml (0.5% w/v) and buffer): complete vitrification with no ice formation; also recorded: vitrified | state after overnight in −20° C. freezer ([6]; 100 μL sample, 5 mg/ml): remained unfrozen | post-thaw survival of the cells (HEK 293 cells; formulation: 5 mg/mL of Compound 12 plus a mixture of glycols, disaccharides, and a general buffer, vitrification in liquid nitrogen, 16 hours post-thaw): 98% | vitrification of cell sample during the freezing process (HEK 293 cells; simple buffer, EG 22.5% (v/v), 5 mg/mL): complete vitrification without ice formation | cell survival after freeze-thaw (HEK 293 cells; simple buffer, EG 22.5% (v/v), 5 mg/mL vs. same solution without compound, viability 12 hours post-thaw): greatly improved cell survival | devitrification of cell sample on rewarming (HEK 293 cells; simple buffer, EG 22.5% (v/v), 5 mg/mL vs. sample lacking compound): bypassed much more rapidly | ice formation after flash freezing (XRD) ([7]; 5 mg/mL (0.5% (w/v)), EG 17.5% (v/v) in water, stream of liquid nitrogen vapor): ice-free after flash freezing | anti-icing effect in comparison to EG at the same molar concentration ([7]; 5 mg/mL with EG 17.5% (v/v)): 500 times | reduction of necessary EG concentration while preventing ice formation (XRD ice ring scores) ([7]; 1 and 5 mg/mL peptoid, EG 15-30% (v/v)): significantly reduced necessary EG concentrations while preventing ice formation | Critical Ethylene Glycol Concentration [1]: 15.0% (ν/ν) | toxicity by MTT assay (HEK 293 cell line; at 0.5% w/v, the concentration that prevents ice formation): did not show toxicity | toxicity by MTT assay (HEK 293 cell line; at concentrations four times greater than 0.5% w/v): did not show significant toxicity | toxicity by MTT assay (HEK 293 cell line; serial dilutions in culture media, 37° C., about 3 to 5 days): did not significantly deviate from the that of culture media alone | cell viability 7 days after thaw (K562 cells [2]): improved cell viability compared to XT Formula alone

Source: patent publication US12391799B2, “Peptoid polymers and methods of use” (X-Therma, Inc., priority 2017, dated 2025)
